How the values were obtained:
Type in all cases: cell-based
[1] = test system: protoplasts of the Primula rupestris sepals; assay: FLIPR calcium signal detection in protoplasts of Primula rupestris sepals
Text: According to the method in Example 4, the EGTA solution and the CaCl2 solution were combined to treat the change of the protoplasts of the Primula rupestris sepals, and the parameters of the examples and comparative examples are shown in Table 6: […]

[2] = test system: protoplasts of the valerian leaves; assay: FLIPR calcium signal detection in protoplasts of valerian leaves
[3] = test system: protoplasts of the Primula rupestris petals; assay: FLIPR calcium signal detection in protoplasts of Primula rupestris petals
Text: According to the method in Example 4, the EGTA solution and the CaCl2 solution were combined to treat the change of the protoplasts of the Primula rupestris petals, and the parameters of the examples and comparative examples are shown in Table 7:

[4] = test system: protoplasts of the Primula rupestris leaves; assay: FLIPR calcium signal detection in protoplasts of Primula rupestris leaves
Method: (1) The protoplasts prepared in Example 1 were taken out, and mixed with the calcium dye according to a ratio of protoplast: calcium dye=1:1, and a group added with only a calcium dye and without protoplasts was taken as a control group, and added to a 96-well plate of a cell plate, as shown in Table 1:
(2) A buffer (helps buffer) was used to prepare a 96-well plate of the cell plate with different concentrations of CaCl2 solutions: CaCl2 (0, 10, 20, 40, 60, 80, 100, 150, 200, 300, and 500 mM). A group without adding protoplasts was taken as a control group.
(3) The cell plate was wrapped with a plastic wrap, and incubated at 37° C. for 1 h. After the incubation, the two plates were balanced, centrifuged at 600 rpm at 4° C. for 1-2 min, and loaded on the machine.
(4) The above experiment was repeated for 10 times to observe whether the results were consistent. The order of concentrations from top to bottom in the legend on the right in FIG. 3 and the order of concentrations from left to right in Table 2 can be in one-to-one correspondence.
The buffer was used to prepare a 96-well plate of the cell plate with different concentrations of CaCl2 solutions: CaCl2 (0, 100, 200, 220, 240, 260, 280, 300, 350, 400, and 450 mM). The cell plate was wrapped with a plastic wrap, and incubated at 37° C. for 1 h. After the incubation, the two plates were balanced, centrifuged at 600 rpm at 4° C. for 1-2 min, and loaded on the machine. The order of concentrations from top to bottom in the legend on the right in FIG. 5 and the order of concentrations from left to right in Table 3 can be in one-to-one correspondence:
Using step (1) in Example 2, a buffer was used to prepare a 96-well plate of a cell plate with different concentrations of EGTA solutions: EGTA solution (0, 0.1, 0.5, 1.0, 5, 10, 25, 50, 100, 150, and 200 mM).
The cell plate was wrapped with a plastic wrap, and incubated at 37° C. for 1 h. After the incubation, the two plates were balanced, centrifuged at 600 rpm at 4° C. for 1-2 min, and loaded on the machine.
The above experiment was repeated for 10 times to observe whether the results were consistent. The order of concentrations from top to bottom in the legend on the right in FIG. 7 and the order of concentrations from left to right in Table 4 can be in one-to-one correspondence.
(1) The protoplasts prepared in Example 1 were taken out, and mixed with the calcium dye according to a ratio of protoplast: calcium dye=1:1 till a total of 150 μL, and a group added with only a calcium dye and without protoplasts was taken as a control group, and added to a 96-well plate of a cell plate.
(2) 220 mM of CaCl2 solution and 100 μM of EGTA solution were added to the 96-well plate of the cell plate in step (1).
(4) The above experiment was repeated for 10 times to observe whether the results were consistent.
The difference was that the EGTA solution and the CaCl2 solution in step (3) had different concentrations, and the corresponding parameters are shown in Table 5: […]

[5] = method of Example 2, FIG. 25-26
[6] = method of Example 2, FIG. 18-19

[Ca+2].[Cl-].[Cl-] [CaCl2]
CaCl2 concentration at which the calcium signal changes significantly ([1]; method of Example 2, FIG. 11-12): 350 mM
CaCl2 concentration range in which the calcium signal changes significantly [2, 5]: 220 to 450 mM
concentration of the CaCl2 solution at which the calcium signal surges significantly [2, 5]: 220 mM
CaCl2 concentration range in which the calcium signal changes significantly [3, 6]: 350 to 450 mM
concentration of the CaCl2 solution at which the calcium signal surges significantly [3, 6]: 350 mM
concentration of the CaCl2 solution at which the calcium signal surges significantly ([4]; first series 0-500 mM CaCl2, 37° C. 1 h, FIG. 2-3): 300 mM
concentration of the CaCl2 solution at which the calcium signal surges significantly ([4]; refined series 0-450 mM CaCl2, 37° C. 1 h, FIG. 4-5): 220 mM
confirmed concentration of the CaCl2 solution (exogenous calcium signal stimulation) ([4]; refined series, FIG. 4-5): 220 to 450 mM

O=C(O)CN(CCOCCOCCN(CC(=O)O)CC(=O)O)CC(=O)O [EGTA, ethylene glycol tetraacetic acid]
effect of composite reaction of EGTA solution and CaCl2 solution on calcium signal fluorescence ([1]; EGTA plus CaCl2, Table 6 settings, FIG. 15-16): can chelate the change of the fluorescence caused by the exogenous calcium signal
confirmed concentration of the calcium signal chelator EGTA solution ([1]; method of Example 3, FIG. 13-14): 5 to 200 µM
effect of composite reaction of EGTA solution and CaCl2 solution on calcium signal fluorescence ([2]; EGTA plus CaCl2, Table 8 settings, FIG. 29-30): can chelate the change of the fluorescence caused by the exogenous calcium signal
confirmed concentration of the calcium signal chelator EGTA solution ([2]; method of Example 3, FIG. 27-28): 0.1 to 200 µM
effect of composite reaction of EGTA solution and CaCl2 solution on calcium signal fluorescence ([3]; EGTA plus CaCl2, Table 7 settings, FIG. 22-23): can chelate the change of the fluorescence caused by the exogenous calcium signal
confirmed concentration of the calcium signal chelator EGTA solution ([3]; method of Example 3, FIG. 20-21): 5 to 200 µM
effect of composite reaction of EGTA solution and CaCl2 solution on calcium signal fluorescence ([4]; EGTA plus CaCl2 1:1, Table 5 settings, FIG. 8-9): can chelate the change of the fluorescence caused by the exogenous calcium signal
EGTA solution concentration with relatively excellent chelation effect on the calcium signal ([4]; EGTA series 0-200, 37° C. 1 h, FIG. 6-7): 5 to 200 µM
